Data as given in paper PMC9007336, “Identification and molecular characterization of a novel non-specific lipid transfer protein (TdLTP2) from durum wheat” (PLoS ONE, 2022).

These compounds were tested against T1, rTdLTP2 (Triticum turgidum, UniProt A0A446PDN1) (assay: hydrophobic ELISA plate coated with lipid, anti-LTP detection, one-site fit).
T1 construct: gene LTP2; mature protein expressed from pPICZalphaA in Pichia pastoris, non-tagged, gel filtration and RP-HPLC
T1 sequence (A0A446PDN1 entry or part of it): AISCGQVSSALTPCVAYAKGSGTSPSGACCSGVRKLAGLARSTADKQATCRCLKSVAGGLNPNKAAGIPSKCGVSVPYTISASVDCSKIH
Type: binding
Excerpt: hydrophobic ELISA plate coated with lipid, anti-LTP detection, one-site fit on rTdLTP2 | high kd values specifically for oleic, palmitic acids and for sterol (Fig 5B and 5C) | rTdLTP2 can bind a wide range of lipids as oleic, linoleic, stearic, and palmitic acids
Work on `CC[C@H](CC[C@@H](C)[C@H]1CC[C@H]2[C@@H]3CC=C4C[C@@H](O)CC[C@]4(C)[C@H]3CC[C@]12C)C(C)C` [B-sitosterol] yielded a Kd of 300 nM.
`CCCCCCCCCCCCCCCC(=O)O` [Palmitic acid] gave a Kd of 310 nM.
For `CCCCC/C=C\C/C=C\CCCCCCCC(=O)O` [linoleic acid], the Kd was 590 nM.
`CCCCCCCC/C=C\CCCCCCCC(=O)O` [oleic acid] showed a Kd of 300 nM.
`CCCCCCCCCCCCCCCCCC(=O)O` [stearic acid] showed a Kd of 470 nM.
